Patent US20240390331A1, “ORAL BENDAMUSTINE FORMULATIONS” (TUBE Pharmaceuticals GmbH, priority 2017, published 2024)

How the values were obtained:
[1] = PK of bendamustine capsule formulations vs 60 min IV infusion in beagle dogs, cross over (Example 7); details: dog, plasma
Text: As bioanalytical method a fast and reliable method was used to determine bendamustine and its main metabolite γ-hydroxybendamustine (M3 metabolite) simultaneously in plasma of different species (Srinivas N R et al., Drug Res (Stuttg), 2016, 66(7), 351-356; Chandrashekar D V et al., Drug Res (Stuttg), 2017, doi: 10.1055/s-0043-108124).
The oral bioavailability and the PK profile of formulations of bendamustine with 2-hydroxypropyl-β-cyclodextrin and β-cyclodextrin were compared in beagle dogs.
Capsules with an amount of bendamustine hydrochloride for each of the two formulations to reach a dose of 12 mg/kg were administered to beagle dogs using a cross over design and compared to 60 min IV infusion administration. Capsule formulations were stored between 2-8° C. The respective IV formulation was prepared fresh immediately prior to dosing.

[2] = bendamustine itself, Preiss R et al. 1985; cited from earlier work

Structure (SMILES): Cl.Cn1c(CCCC(=O)O)nc2cc(N(CCCl)CCCl)ccc21 [bendamustine, 4-(5-(bis-(2-chloro-ethyl)-amino)-1-methyl-1H-benzimidazol-2-yl)-butyric acid hydrochloride]
- AUC [1]: 3800 ng·h/mL
- Cmax [1]: 4300 ng/mL
- oral bioavailability [2]: about 56%
